Laboratory results published in patent US20260223850A1, “SUBSTITUTED PYRROLIDONE COMPOUND, PREPARATION METHOD THEREFOR, COMPOSITION AND APPLICATION THEREOF” (QINGDAO KINGAGROOT CHEMICAL COMPOUND CO., LTD., priority 2023, published 2026).
Read-outs that look alike come from different tables or passages of the source.

What was measured:
Assay type in all cases: in vivo
[1] = system: weeds; assay: Activity assay of compositions, soil sealing treatment (S); conditions: for pest or weed control at 30 g/ha / pest or weed control at 60 g/ha / pest or weed control at 75 g/ha / pest or weed control at 150 g/ha / pest or weed control at 7.5 g/ha / pest or weed control at 15 g/ha / pest or weed control at 300 g/ha: soil, read-out: Control effect of B applied alone in a corresponding dose (%); for pest or weed control at 300 g/ha: B 300 g a.i./ha
Description: The required active ingredient B was purchased from a reagent company or a technical material manufacturer or synthesized by a conventional method. The technical materials were all dissolved with acetone solvents and diluted with aqueous solution of 0.1% Tween® 80 emulsifier, which should be used immediately after dilution.
The test soil was quantitatively filled to ¾ of a pot, and then watered from the bottom of the pot to completely wet the soil to saturation. The seeds of the test weeds were accelerated to Just germinate, and then evenly and quantitatively broadcasted on the soil surface, covered with 0.5-1 cm soil according to the sizes of the seeds, and ready for use 72 hours after broadcasting.
Each treatment was repeated 4 times. Four pots were treated each time with 20 weed seeds per pot.
The seeds were planted in a 20 cm*30 cm square box. Water was added to 2-3 cm deep after sowing, then injected with the drug agent using a syringe, stirred evenly, and left to stand for 2 days to dry naturally. The soil was kept moist afterwards.
A method for investigating absolute numbers was employed. The whole seedlings of the survival weeds were cut along the soil surface with a blade, and the fresh weight of the weeds was weighed by an analytical balance. For dead weeds, the fresh weight thereof was considered zero.
The investigation was performed 21 days after the treatment for once in total.
The theoretical fresh weight inhibition rate of a mixed combination of each treatment was calculated by the Gowing method (E0═X+Y−X*Y/100), then compared with the measured inhibition rate (E) to evaluate the type of the combined action of the combination of the two on weeds. The combined action was a synergistic effect when E−E0 >10%; an antagonistic effect when E−E0<−10%; an additional effect when −10%≤E−E0≤10%. An optimal ratio was determined according to factors such as actual control effects, characteristics of herbicides, balance of the formulation, etc.

[2] = system: Leptochloa chinensis; assay: Seedling stage sealing experiment for water-seeding; conditions: 120 g a.i./ha, 15 days, fresh weight control rate
How it was run: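 Seeds sown in soil-filled bowls kept moist in water-filled boxes; compound in acetone diluted with water and spray-applied at 120, 60, 30 and 15 g a.i./ha, triplicate. After 15 days in greenhouse, fresh-weight growth control scored on a 0–9 scale (9 = dead, 0 = no effect), averaged.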

[3] = system: Echinochloa crusgalli; assay: as above; conditions: 120 g a.i./ha, seedling stage sealing, 15 days, fresh weight control rate
[4] = system: Digitaria sanguinalis; assay: as above; conditions: 120 g a.i./ha, seedling stage sealing, 15 days, fresh weight control rate
How it was run: (§1)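 Grades run from 0 (no effect) to 9 (completely dead), each band set by percent fresh-weight growth control. Application by spray tower at 120, 60, 30 and 15 g a.i./ha in triplicate; evaluated after 15 days of greenhouse culture.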

[5] = system: Echinochloa phyllopogon; assay: as above; conditions: 120 g a.i./ha, seedling stage sealing, 15 days, fresh weight control rate
How it was run: as §1

[6] = system: Huaidao (rice cultivar); assay: Seedling stage sealing experiment for water-seeding (crop safety); conditions: 120 g a.i./ha, seedling stage sealing, 15 days, fresh weight control rate
How it was run: as §1

[7] = Rotala indica, S, B 30 g a.i./ha
[8] = Rotala indica, S, B 60 g a.i./ha
[9] = Paspalum distichum, S, B 30 g a.i./ha
[10] = Paspalum distichum, S, B 60 g a.i./ha
[11] = Rotala indica, S, B 7.5 g a.i./ha
[12] = Rotala indica, S, B 15 g a.i./ha
[13] = Paspalum distichum, S, B 7.5 g a.i./ha
[14] = Paspalum distichum, S, B 15 g a.i./ha
[15] = Rotala indica, S, B 150 g a.i./ha
[16] = Alisma plantago-aquatica, S, B 3.75 g a.i./ha
[17] = Alisma plantago-aquatica, S, B 7.5 g a.i./ha

## CC(C)Oc1cc(-n2nc(C(C)(C)C)oc2=O)c(Cl)cc1Cl [Oxadiazon, oxadiazon]
[1]; [7]
  pest or weed control at 30 g/ha: 50.5%
[1]; [8]
  pest or weed control at 60 g/ha: 68.7%

## CC1(C)CON(Cc2ccccc2Cl)C1=O [Clomazone, clomazone]
[1]; [9]
  pest or weed control at 30 g/ha: 44.3%
[1]; [10]
  pest or weed control at 60 g/ha: 51.5%

## CCNc1nc(NCC)nc(SC)n1 [Simetryn, simetryn]
[1]; Paspalum distichum
  pest or weed control at 75 g/ha: 45.5%
  pest or weed control at 150 g/ha: 54.8%

## COC(=O)[C@@H](C)O/N=C/c1cc(-n2c(=O)cc(C(F)(F)F)n(C)c2=O)c(F)cc1Cl
[1]; [11]
  pest or weed control at 7.5 g/ha: 47.9%
[1]; [12]
  pest or weed control at 15 g/ha: 56.6%

## COc1c(Cl)ccc(C2CN(C)C(=O)C2C(=O)Nc2cnn(C)c2Cl)c1F (stereo not drawn) [Compound 118]
[2]
  Leptochloa chinensis activity level (growth control rate): 6 (Level 6: growth control rate greater than or equal to 70% and less than 80%)
[3]
  Echinochloa crusgalli activity level (growth control rate): 9
[4]
  Digitaria sanguinalis activity level (growth control rate): 9
[5]
  Echinochloa phyllopogon activity level (growth control rate): 6 (Level 6: growth control rate greater than or equal to 70% and less than 80%)

## C#CCN(C)c1c(C#N)cnn1-c1nn2c(c1Cl)CCCC2 [Pyraclonil, pyraclonil]
[1]; [7]
  Control effect of B applied alone in a corresponding dose (%): 48.2%
[1]; [8]
  Control effect of B applied alone in a corresponding dose (%): 63.4%

## CC(C)C12CCC(C)(O1)C(OCc1c(F)cccc1Br)C2 (stereo not drawn)
[1]; [13]
  pest or weed control at 7.5 g/ha: 46.3%
[1]; [14]
  pest or weed control at 15 g/ha: 57.4%

## CC1(C)CON(Cc2ccc(Cl)cc2Br)C1=O
[1]; [9]
  pest or weed control at 30 g/ha: 37.8%
[1]; [10]
  pest or weed control at 60 g/ha: 51.3%

## COP(=S)(OC)SCC(=O)N(c1ccc(Cl)cc1)C(C)(C)C [Anilofos, anilofos]
[1]; Rotala indica
  pest or weed control at 75 g/ha: 22.4%
  pest or weed control at 150 g/ha: 31.8%

## Cc1ccccc1CO[C@@H]1C[C@@]2(C(C)C)CC[C@]1(C)O2 (racemic) [Cinmethylin, cinmethylin]
[1]; [13]
  pest or weed control at 7.5 g/ha: 34.8%
[1]; [14]
  pest or weed control at 15 g/ha: 47.6%

## CCCCOCN(C(=O)CCl)c1c(CC)cccc1CC [Butachlor, butachlor]
[1]; [15]
  pest or weed control at 150 g/ha: 42.4%
[1]; Rotala indica, S
  pest or weed control at 300 g/ha: 58.6%

## CN(C(=O)COc1nc2ccccc2s1)c1ccccc1 [Mefenacet, mefenacet]
[1]; [15]
  pest or weed control at 150 g/ha: 38.4%
[1]; Rotala indica, S
  pest or weed control at 300 g/ha: 58.3%

## CN1C[C@H](c2cc(C(F)(F)F)cc(C(F)(F)F)c2)[C@@H](C(=O)Nc2cnn(C)c2Cl)C1=O [295′]
[2]
  Leptochloa chinensis activity level (growth control rate): 9
[3]
  Echinochloa crusgalli activity level (growth control rate): 7 (Level 7: growth control rate greater than or equal to 80% and less than 90%)
[4]
  Digitaria sanguinalis activity level (growth control rate): 9
[5]
  Echinochloa phyllopogon activity level (growth control rate): 6 (Level 6: growth control rate greater than or equal to 70% and less than 80%)

## CCOc1cc(Oc2ccc(C(F)(F)F)cc2Cl)ccc1[N+](=O)[O-] [Oxyfluorfen, oxyfluorfen]
[1]; [11]
  pest or weed control at 7.5 g/ha: 51%
[1]; [12]
  pest or weed control at 15 g/ha: 69.3%

## CCOCN(C(=O)CCl)c1c(C)cccc1CC [Acetochlor, acetochlor]
[1]; [15]
  pest or weed control at 150 g/ha: 46.2%
[1]; Rotala indica, S
  pest or weed control at 300 g/ha: 66.5%

## CS(=O)(=O)c1ccc(C(=O)C2=C(Sc3ccccc3)C3CCC(C3)C2=O)c(Cl)c1 (stereo not drawn) [Benzobicyclon, benzobicyclon]
[1]; [12]
  Control effect of B applied alone in a corresponding dose (%): 32.8%
[1]; [7]
  Control effect of B applied alone in a corresponding dose (%): 49.6%

## COc1cc(F)cc([C@H]2CN(C)C(=O)[C@@H]2C(=O)Nc2cnn(C)c2Cl)c1 [298′]
[2]
  Leptochloa chinensis activity level (growth control rate): 7 (Level 7: growth control rate greater than or equal to 80% and less than 90%)
[3]
  Echinochloa crusgalli activity level (growth control rate): 7 (Level 7: growth control rate greater than or equal to 80% and less than 90%)
[4]
  Digitaria sanguinalis activity level (growth control rate): 9
[5]
  Echinochloa phyllopogon activity level (growth control rate): 6 (Level 6: growth control rate greater than or equal to 70% and less than 80%)

## Cc1ccc(C2CN(C)C(=O)C2C(=O)Nc2cnn(C)c2Cl)cc1C(F)(F)F (stereo not drawn) [Compound 56]
[2]
  Leptochloa chinensis activity level (growth control rate): 9
[3]
  Echinochloa crusgalli activity level (growth control rate): 9
[4]
  Digitaria sanguinalis activity level (growth control rate): 9
[5]
  Echinochloa phyllopogon activity level (growth control rate): 6 (Level 6: growth control rate greater than or equal to 70% and less than 80%)

## COC(=O)c1nc(-c2ccc(Cl)c(OC)c2F)cc(N)c1Cl [Halauxifen-methyl, halauxifen-methyl]
[1]; [16]
  Control effect of B applied alone in a corresponding dose (%): 58.4%
[1]; [17]
  Control effect of B applied alone in a corresponding dose (%): 68.9%

## CC(C)=C1OC(=O)N(c2cc(OC3CCCC3)c(Cl)cc2F)C1=O [Pentoxazone, pentoxazone]
[1]; Rotala indica
  pest or weed control at 30 g/ha: 55.3%
  pest or weed control at 60 g/ha: 62.7%

## CCC[S@@+]([O-])c1c(C(F)(F)F)ccc(C(=O)Nc2nnc(C)o2)c1F
[1]; [12]
  pest or weed control at 15 g/ha: 35.8%
[1]; [7]
  pest or weed control at 30 g/ha: 46.6%

## Cc1nn(C)cc1C(=O)Oc1c(C(=O)c2ccc(C(F)(F)F)cc2S(C)(=O)=O)c(C)nn1C [Bipyrazone, bipyrazone]
[1]; [12]
  Control effect of B applied alone in a corresponding dose (%): 24.5%
[1]; [7]
  Control effect of B applied alone in a corresponding dose (%): 38.8%

## CC1=C(c2ccccc2)C(=O)N(C(C)(C)c2cc(Cl)cc(Cl)c2)CO1 [Oxaziclomefone, oxaziclomefone]
[1]; [13]
  pest or weed control at 7.5 g/ha: 36.9%
[1]; [14]
  pest or weed control at 15 g/ha: 48.5%

## CCc1ccc(-n2cnc(C(F)(F)F)n2)nc1Oc1cccc(C(F)(F)F)c1
[1]; [11]
  pest or weed control at 7.5 g/ha: 47.1%
[1]; [12]
  pest or weed control at 15 g/ha: 63.6%

## CCCOCCN(C(=O)CCl)c1c(CC)cccc1CC [Pretilachlor, pretilachlor]
[1]; Rotala indica, S, B 75 g a.i./ha
  pest or weed control at 75 g/ha: 54.2%
[1]; [15]
  pest or weed control at 150 g/ha: 63.9%

## Cc1cccc([C@H]2CN(C)C(=O)[C@@H]2C(=O)Nc2cnn(C(F)F)c2Cl)c1 [131′]
[2]
  Leptochloa chinensis activity level (growth control rate): 9
[3]
  Echinochloa crusgalli activity level (growth control rate): 9
[4]
  Digitaria sanguinalis activity level (growth control rate): 9
[5]
  Echinochloa phyllopogon activity level (growth control rate): 9

## oxadiargyl
[1]; [11]
  Control effect of B applied alone in a corresponding dose (%): 47.2%
[1]; [12]
  Control effect of B applied alone in a corresponding dose (%): 58.6%

## COc1c(Cl)ccc(-c2nc(C(=O)OCc3ccccc3)c(Cl)c(N)c2F)c1F [Florpyrauxifen-benzyl, florpyrauxifen-benzyl]
[1]; [16]
  Control effect of B applied alone in a corresponding dose (%): 62.8%
[1]; [17]
  Control effect of B applied alone in a corresponding dose (%): 74.6%

## CC1(C)CON(Cc2ccc(Cl)cc2Cl)C1=O [Bixlozone, bixlozone]
[1]; [9]
  Control effect of B applied alone in a corresponding dose (%): 41.7%
[1]; [10]
  Control effect of B applied alone in a corresponding dose (%): 52.8%

## CS(=O)(=O)c1ccc(C(=O)C2C(=O)CCCC2=O)c(Cl)c1COCC1CCCO1 (stereo not drawn) [Tefuryltrione, tefuryltrione]
[1]; [12]
  Control effect of B applied alone in a corresponding dose (%): 30.8%
[1]; [7]
  Control effect of B applied alone in a corresponding dose (%): 45.2%

## Cc1cc(C)cc(C2CN(C)C(=O)C2C(=O)Nc2cnn(C)c2Cl)c1 (stereo not drawn) [Compound 117]
[6]
  Huaidao (rice cultivar) plant damage level: 0
[2]
  Leptochloa chinensis activity level (growth control rate): 9
[3]
  Echinochloa crusgalli activity level (growth control rate): 9
[4]
  Digitaria sanguinalis activity level (growth control rate): 9
[5]
  Echinochloa phyllopogon activity level (growth control rate): 6 (Level 6: growth control rate greater than or equal to 70% and less than 80%)
